According to patent US10597388B2, “Pyridazinone herbicides” (FMC CORPORATION, priority 2014, dated 2020):

Assays:
Assay in all cases: Test D controlled growth environment herbicide test, pre- and postemergence
Assay type in all cases: in vivo
[1] = system: bromegrass, downy (downy bromegrass, Bromus tectorum)
Outline: (§1)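 Rating is visual, 0–100 scale (100 = complete control), made against untreated plants 14–21 d after treatment in controlled growth conditions. Postemergence sprays went onto 1- to 4-leaf plants in peat medium; preemergence sprays onto silt loam after sowing; formulation included a surfactant.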

[2] = system: bluegrass (annual bluegrass, Poa annua)
Outline: as §1

[3] = system: field violet (Viola arvensis)
Outline: as §1

[4] = system: oilseed rape (Brassica napus)
Outline: as §1

[5] = system: buckwheat, wild (wild buckwheat, Polygonum convolvulus)
Outline: as §1

[6] = system: Russian thistle (Salsola kali)
Outline: as §1

[7] = system: radish, wild (wild radish, Raphanus raphanistrum)
Outline: as §1

[8] = system: oat, wild (wild oat, Avena fatua)
Outline: as §1

[9] = system: canarygrass (Phalaris minor)
Outline: as §1

[10] = system: chamomile (scentless chamomile, Matricaria inodora)
Outline: as §1

[11] = system: mustard, wild (wild mustard, Sinapis arvensis)
Outline: as §1

[12] = system: field poppy (Papaver rhoeas)
Outline: as §1

[13] = system: wheat, spring (spring wheat, Triticum aestivum)
Outline: as §1

[14] = Postemergence, 31 g ai/ha, scale 0 to 100 (0 no effect, 100 complete control)
[15] = Postemergence, 125 g ai/ha, visual rating on scale 0 (no effect) to 100 (complete control), 14 to 21 d
[16] = Postemergence, 250 g ai/ha, scale 0 to 100 (0 no effect, 100 complete control)
[17] = Preemergence, 62 g ai/ha, scale 0 to 100 (0 no effect, 100 complete control)
[18] = Preemergence, 125 g ai/ha, scale 0 to 100 (0 no effect, 100 complete control)
[19] = Preemergence, 250 g ai/ha, scale 0 to 100 (0 no effect, 100 complete control)
[20] = postemergence, 62 g ai/ha, scale 0 to 100, 0 no effect, 100 complete control

Cc1ccc2ccccc2c1-c1c(O)c(C)nn(C)c1=O [Compound 59]
Bromegrass, Downy plant response rating [1, 14]: 35
Plant response rating, Bromegrass, Downy [1, 15]: 70
Plant response rating, Bromegrass, Downy [1, 16]: 85
Plant response rating (scale of 0 to 100), Bromegrass, Downy ([1]; Preemergence, 31 g ai/ha): 75
Plant response rating, Bromegrass, Downy [1, 17]: 85
Plant response rating, Bromegrass, Downy [1, 18]: 90
Plant response rating, Bromegrass, Downy [1, 19]: 95
Plant response rating, Bromegrass, Downy [1, 20]: 70
Bluegrass plant response rating [2, 14]: 25
Plant response rating, Bluegrass [2, 15]: 55
Plant response rating, Bluegrass [2, 16]: 75
Plant response rating (scale of 0 to 100), Bluegrass ([2]; Preemergence, 31 g ai/ha): 30
Plant response rating, Bluegrass [2, 17]: 50
Plant response rating, Bluegrass [2, 18]: 75
Plant response rating, Bluegrass [2, 19]: 80
Plant response rating, Bluegrass [2, 20]: 40
Field Violet plant response rating [3, 14]: 75
Plant response rating, Field Violet [3, 15]: 95
Plant response rating, Field Violet [3, 16]: 95
Plant response rating (scale of 0 to 100), Field Violet ([3]; Preemergence, 31 g ai/ha): 80
Plant response rating, Field Violet [3, 17]: 90
Plant response rating, Field Violet [3, 18]: 95
Plant response rating, Field Violet [3, 19]: 100
Plant response rating, Field Violet [3, 20]: 80
Oilseed Rape plant response rating [4, 14]: 60
Plant response rating, Oilseed Rape [4, 15]: 85
Plant response rating, Oilseed Rape [4, 16]: 90
Plant response rating (scale of 0 to 100), Oilseed Rape ([4]; Preemergence, 31 g ai/ha): 20
Plant response rating, Oilseed Rape [4, 17]: 30
Plant response rating, Oilseed Rape [4, 18]: 50
Plant response rating, Oilseed Rape [4, 19]: 80
Plant response rating, Oilseed Rape [4, 20]: 70
Buckwheat, Wild plant response rating [5, 14]: 65
Plant response rating, Buckwheat, Wild [5, 15]: 100
Plant response rating, Buckwheat, Wild [5, 16]: 100
Plant response rating (scale of 0 to 100), Buckwheat, Wild ([5]; Preemergence, 31 g ai/ha): 20
Plant response rating, Buckwheat, Wild [5, 17]: 65
Plant response rating, Buckwheat, Wild [5, 18]: 100
Plant response rating, Buckwheat, Wild [5, 19]: 95
Plant response rating, Buckwheat, Wild [5, 20]: 100
Russian Thistle plant response rating [6, 14]: 80
Plant response rating, Russian Thistle [6, 15]: 85
Plant response rating, Russian Thistle [6, 16]: 85
Plant response rating (scale of 0 to 100), Russian Thistle ([6]; Preemergence, 31 g ai/ha): 40
Plant response rating, Russian Thistle [6, 17]: 50
Plant response rating, Russian Thistle [6, 18]: 80
Plant response rating, Russian Thistle [6, 19]: 90
Plant response rating, Russian Thistle [6, 20]: 80
Radish, Wild plant response rating [7, 14]: 95
Plant response rating, Radish, Wild [7, 15]: 100
Plant response rating, Radish, Wild [7, 16]: 100
Plant response rating, Radish, Wild [7, 17]: 85
Plant response rating, Radish, Wild [7, 18]: 95
Plant response rating, Radish, Wild [7, 19]: 100
Plant response rating, Radish, Wild [7, 20]: 95
Oat, Wild plant response rating [8, 14]: 80
Plant response rating, Oat, Wild [8, 15]: 95
Plant response rating, Oat, Wild [8, 16]: 98
Plant response rating (scale of 0 to 100), Oat, Wild ([8]; Preemergence, 31 g ai/ha): 90
Plant response rating, Oat, Wild [8, 17]: 90
Plant response rating, Oat, Wild [8, 18]: 95
Plant response rating, Oat, Wild [8, 19]: 100
Plant response rating, Oat, Wild [8, 20]: 90
Canarygrass plant response rating [9, 14]: 75
Plant response rating, Canarygrass [9, 15]: 90
Plant response rating, Canarygrass [9, 16]: 90
Plant response rating (scale of 0 to 100), Canarygrass ([9]; Preemergence, 31 g ai/ha): 80
Plant response rating, Canarygrass [9, 17]: 90
Plant response rating, Canarygrass [9, 18]: 95
Plant response rating, Canarygrass [9, 19]: 100
Plant response rating, Canarygrass [9, 20]: 80
Chamomile plant response rating [10, 14]: 80
Plant response rating, Chamomile [10, 15]: 85
Plant response rating, Chamomile [10, 16]: 100
Plant response rating (scale of 0 to 100), Chamomile ([10]; Preemergence, 31 g ai/ha): 100
Plant response rating, Chamomile [10, 17]: 95
Plant response rating, Chamomile [10, 18]: 100
Plant response rating, Chamomile [10, 19]: 100
Plant response rating, Chamomile [10, 20]: 80
Mustard, Wild plant response rating [11, 14]: 90
Plant response rating, Mustard, Wild [11, 15]: 100
Plant response rating, Mustard, Wild [11, 16]: 100
Plant response rating (scale of 0 to 100), Mustard, Wild ([11]; Preemergence, 31 g ai/ha): 95
Plant response rating, Mustard, Wild [11, 17]: 95
Plant response rating, Mustard, Wild [11, 18]: 100
Plant response rating, Mustard, Wild [11, 19]: 100
Plant response rating, Mustard, Wild [11, 20]: 100
Field Poppy plant response rating [12, 14]: 70
Plant response rating, Field Poppy [12, 15]: 95
Plant response rating, Field Poppy [12, 16]: 100
Plant response rating (scale of 0 to 100), Field Poppy ([12]; Preemergence, 31 g ai/ha): 100
Plant response rating, Field Poppy [12, 17]: 100
Plant response rating, Field Poppy [12, 18]: 100
Plant response rating, Field Poppy [12, 19]: 100
Plant response rating, Field Poppy [12, 20]: 75
Wheat, Spring plant response rating [13, 14]: 40
Plant response rating, Wheat, Spring [13, 15]: 70
Plant response rating, Wheat, Spring [13, 16]: 80
Plant response rating (scale of 0 to 100), Wheat, Spring ([13]; Preemergence, 31 g ai/ha): 35
Plant response rating, Wheat, Spring [13, 17]: 65
Plant response rating, Wheat, Spring [13, 18]: 80
Plant response rating, Wheat, Spring [13, 19]: 85
Plant response rating, Wheat, Spring [13, 20]: 45
